Measurements reported in patent publication US7928078B2, “Conjugates of immune cell specific macrolide compounds with anti-inflammatory compounds for improved cellular targeting of anti-inflammatory therapy” (GlaxoSmithKline Istrazivacki Centar Zagreb D.O.O., priority 2001, dated 2011).

Tests used:
[1] = test system: OVA-induced lung eosinophilia; experiment: Model of lung eosinophilia in mice; assay type: in vivo, Balb/C mice; settings: daily i.n. or i.p., different doses, 48 hours after OVA, t-test, p<0.05
Method: Model of Lung Eosinophilia in Mice
Male Balb/C mice with a body weight of 20-25 g were randomly divided into groups. They were sensibilized by an i.p. injection of ovalbumine (OVA, Sigma) on zero day and on the fourteenth day. On the twentieth day the mice were subjected to a provocative test by i.n. application of OVA (positive control or test groups) or PBS (negative control). 48 hours after i.n. application of OVA, the animals were anesthetized and the lungs were rinsed with 1 ml of PBS. The cells were separated on Cytospin 3 cytocentrifuge (Shandon). The cells were stained in Diff-Quick (Dade) and the percentage of eozinophiles was determined by differential counting of at least 100 cells.
Fluticasone and beclomethasone were used as standard substances under positive and negative control.
The compounds were administered daily i.n. or i.p. in different doses 2 days before provocative test and up to the completion of the test.

[2] = test system: mouse T-cell hybridoma 13; experiment: Assay of inhibition of mouse T-cell hybridoma 13 proliferation as a result of apoptose induction; assay type: cell-based; settings: [3H] thymidine incorporation
Method: Assay of Inhibition of Mouse T-Cell Hybridoma 13 Proliferation as a Result of Apoptose Induction
In a 96-well plate triplicates of test steroid dilution in RPMI medium (Immunoloski zavod) with […] were performed. To the solutions of compounds 20 000 cells per well were added and incubated overnight at 37° C. in an atmosphere with 5% CO2, then 1 μCi of [^3H] thymidine (Pharmacia) was added and it was incubated for additional 3 hours. The cells were harvested by sucking over GF/C filter (Packard). Onto each well 30 μl of Microscynt O scintillation liquid (Packard) were added and the incorporated radioactivity was measured on a β-scintillation counter (Packard). The specifity of apoptose induction by glucocorticoids was proven by antagonising the proliferation inhibition with mifepristone (Sigma).

[3] = test system: interleukin-2 production induced by the stimulation via CD3 receptor; experiment: Assay of inhibition of interleukin-2 production; assay type: cell-based, mouse
Method: Assay of Inhibition of Interleukin-2 Production
Onto a 96-well plate (Nunc) 15 ng of 2C11 antibodies (Pharmingen) per well were added and left to adsorb in PBS buffer (pH=7.4) overnight at 4° C. PBS was removed, the plate was washed with RPMI medium and then 50,000 cells per well were added and incubated in the medium with and without a dilution of the test compounds. The concentration of IL-2 in the supernatant was measured by ELISA specific for mouse IL-2 (R&D Systems).

[4] = biological target: T1, alpha isoform of human glucocorticoid receptor (Homo sapiens, UniProt P04150); experiment: Assay of binding to the human glucocorticoid receptor ([3H] dexamethasone competition in transfected COS-1 cells); settings: 24 nM [3H] dexamethasone
T1 construct: expressed in transfected cells; host or cells: COS-1 cells, transient transfection with pcDNA3.1 hygro(+) carrying the GR alpha cDNA
T1 sequence (P04150 1-777): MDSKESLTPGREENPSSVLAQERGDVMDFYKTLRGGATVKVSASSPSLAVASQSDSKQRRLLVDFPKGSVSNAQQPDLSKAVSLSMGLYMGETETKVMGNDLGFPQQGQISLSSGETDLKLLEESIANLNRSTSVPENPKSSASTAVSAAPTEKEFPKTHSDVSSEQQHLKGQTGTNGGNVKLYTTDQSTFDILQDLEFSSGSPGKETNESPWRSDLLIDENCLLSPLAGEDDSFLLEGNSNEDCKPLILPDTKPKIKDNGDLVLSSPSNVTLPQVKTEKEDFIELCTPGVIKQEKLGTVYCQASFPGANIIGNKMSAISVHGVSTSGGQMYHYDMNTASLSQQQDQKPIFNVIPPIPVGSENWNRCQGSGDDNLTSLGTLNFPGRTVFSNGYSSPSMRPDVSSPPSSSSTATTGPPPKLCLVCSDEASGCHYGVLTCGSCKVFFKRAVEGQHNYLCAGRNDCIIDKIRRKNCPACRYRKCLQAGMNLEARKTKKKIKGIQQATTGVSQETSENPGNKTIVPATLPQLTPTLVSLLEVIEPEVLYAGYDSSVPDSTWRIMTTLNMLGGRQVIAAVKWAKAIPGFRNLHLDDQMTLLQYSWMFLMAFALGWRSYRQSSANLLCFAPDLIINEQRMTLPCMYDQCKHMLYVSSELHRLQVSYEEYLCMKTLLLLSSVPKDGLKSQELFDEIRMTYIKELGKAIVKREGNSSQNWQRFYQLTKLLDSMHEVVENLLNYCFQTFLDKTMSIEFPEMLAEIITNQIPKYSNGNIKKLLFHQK
Text: Assay of Binding to the Human Glucocorticoid Receptor
The gene for alpha isoform of human glucocorticoid receptor was cloned by reverse polymerase chain reaction. The total RNA was isolated from human peripheral blood lymphocites according to the instructions of the manufacturer (Qiagen), transcripted into cDNA with AMV reverse transcriptase (Roche) and the gene was multiplied by specific primers
The obtained reaction product was cloned into XhoI/BamHI site of Bluescript KS plasmid (Stratagene), subjected to sequencing by dideoxy fluorescent method with M13 and M13 rev primers (Mycrosynth) and then it was cloned into XhoI/BamHI site of pcDNA3.1 hygro(+)plasmid (Invitrogen). 1×10^5 COS-1 cells were seeded onto a 12-well plate (Falcon) in DMEM medium (Life Technologies) with 10% FBS (Biowhitaker) and cultivated up to a 70% confluence at 37° C. in an atmosphere with 5% CO2. The medium was removed and 1 μg of DNA, 7 μl of PLUS reagent and 2 μl of Lipofectamine (Life Technologies) in 500 μl DMEM were added per well. The cells were incubated at 37° C. in an atmosphere with 5% CO2 and after 5 hours the same volume of 20% FBS/DMEM was added. After 24 hours the medium was completely changed. 48 hours after the transfection, the test compounds in different concentrations and 24 nM [^3H] dexamethasone (Pharmacia) in DMEM medium were added. The cells were incubated for 90 minutes at 37° C. in an atmosphere with 5% CO2, washed three times with PBS buffer (Sigma), cooled to 4° C. (pH=7.4) and then lyzed in Tris buffer (pH=8.0) (Sigma) with 0.2% SDS (Sigma). After the addition of UltimaGold XR (Packard) scintillation liquid, the residual radioactivity was read in a Tricarb (Packard) β-scintillation counter.

CHO and COS-1 cells = experiment: Assay of steroid introduction into cells; assay type: cell-based; settings: 1 μM radioactive compound, 90 minutes, 37° C.
Method: Assay of Steroid Introduction into Cells
CHO and COS-1 cells were cultivated up to confluence in 75 cm^2 flasks in Hamm F 12 medium (Life Technologies) with 10% FBS (CHO) or in DMEM medium with 10% FBS (COS-1). 1 μM of radioactive compound 10 with total 2 μCi activity was added onto the cells and it was incubated for 90 minutes at 37° C. in an atmosphere with 5% CO2. The cell supernatant was collected, the cells were lysed and then the radioactivity in the cell lysate as well as in the cell supernatant was read.

[5] = Influence of compounds on the thymus weight; settings: rats, s.c. implanted impregnated pellets, 7 days
Text: Influence of Compounds on the Thymus Weight
Male Sprague Dawley rats with a body weight of 200 g were randomly divided into groups of six animals. To anaesthetized animals sterilized weighed pellets of filter paper were implanted s.c. dorsally. The pellets in the control group were impregnated with acetone, whereas in the test groups they were impregnated either with the standard (prednisolone, Sigma) or with the compound 10. After 7 days the animals were put to sleep and their thymuses were isolated and weighed. The systemic effects were estimated by comparing the thymus weight in the test and control groups.

Compound: CC[C@H]1OC(=O)[C@H](C)[C@@H](O[C@@H]2C[C@](C)(OC)[C@H](O)C(C)O2)[C@H](C)[C@@H](O[C@@H]2O[C@H](C)C[C@@H](N(C)C)[C@H]2O)[C@](C)(O)C[C@@H](C)CN(CCCNC(=O)[C@@]2(O)CCC3C4CCC5=CC(=O)CC[C@]5(C)C4[C@@H](O)C[C@@]32C)[C@H](C)[C@@H](O)[C@]1(C)O (stereo partly drawn) [Compound 8]
- number of eosinophiles in the lung rinse with regard to the positive control [1]: statistically significantly (t-test, p<0.05) reduced
- inhibition of cell hybridoma 13 proliferation [2]: demonstrated an inhibition
- melting point: 144 °C

Compound: CC[C@H]1OC(=O)[C@H](C)[C@@H](O[C@@H]2C[C@](C)(OC)[C@H](O)C(C)O2)[C@H](C)[C@@H](O[C@@H]2O[C@H](C)C[C@@H](N(C)C)[C@H]2O)[C@](C)(O)C[C@@H](C)CN(CCCNC(=O)[C@@]2(O)[C@H](C)CC3C4C[C@H](F)C5=CC(=O)C=C[C@]5(C)[C@@]4(F)[C@@H](O)C[C@@]32C)[C@H](C)[C@@H](O)[C@]1(C)O (stereo partly drawn) [Compound 9]
- inhibition of interleukin-2 production [3]: demonstrate an inhibition
- number of eosinophiles in the lung rinse with regard to the positive control [1]: statistically significantly (t-test, p<0.05) reduced
- inhibition of cell hybridoma 13 proliferation [2]: demonstrated an inhibition
- competition with radioactive dexamethasone in the binding site on the glucocorticoid receptor [4]: able to compete with radioactive dexamethasone
- melting point: 169 °C

Compound: CC[C@H]1OC(=O)[C@H](C)[C@@H](O[C@@H]2C[C@](C)(OC)[C@H](O)C(C)O2)[C@H](C)[C@@H](O[C@@H]2O[C@H](C)C[C@@H](N(C)C)[C@H]2O)[C@](C)(O)C[C@@H](C)CN(CCCNC(=O)[C@@]2(O)[C@H](C)CC3C4CCC5=CC(=O)C=C[C@]5(C)[C@@]4(F)[C@@H](O)C[C@@]32C)[C@H](C)[C@@H](O)[C@]1(C)O (stereo partly drawn) [Compound 10]
- inhibition of interleukin-2 production [3]: demonstrate an inhibition
- number of eosinophiles in the lung rinse with regard to the positive control [1]: statistically significantly (t-test, p<0.05) reduced
- inhibition of cell hybridoma 13 proliferation [2]: demonstrated an inhibition
- competition with radioactive dexamethasone in the binding site on the glucocorticoid receptor [4]: able to compete with radioactive dexamethasone
- accumulation in the cells versus cell supernatant (CHO and COS-1 cells): able to accumulate in the cells in a greater concentration than in the supernatant
- melting point: 170 to 175 °C

Compound: C[C@]12C=CC(=O)C=C1CC[C@@H]1[C@@H]2[C@@H](O)C[C@@]2(C)[C@H]1CC[C@]2(O)C(=O)CO [standard, prednisolone]
- effect on thymus weights with regard to the control [5]: statistically significantly reduced the thymus weights
